Structures are written as SMILES. Where a name gives a salt, the structure may show the parent alone. Read-outs that look alike come from different tables or passages of the source.

In experiment [1] the target is T1, thymidine phosphorylase obtained from human placenta (Homo sapiens, UniProt P19971).
T1 construct: thymidine phosphorylase obtained from human placenta in a highly purified form; from tissue; host or cells: human placenta
T1 sequence (P19971 11-482): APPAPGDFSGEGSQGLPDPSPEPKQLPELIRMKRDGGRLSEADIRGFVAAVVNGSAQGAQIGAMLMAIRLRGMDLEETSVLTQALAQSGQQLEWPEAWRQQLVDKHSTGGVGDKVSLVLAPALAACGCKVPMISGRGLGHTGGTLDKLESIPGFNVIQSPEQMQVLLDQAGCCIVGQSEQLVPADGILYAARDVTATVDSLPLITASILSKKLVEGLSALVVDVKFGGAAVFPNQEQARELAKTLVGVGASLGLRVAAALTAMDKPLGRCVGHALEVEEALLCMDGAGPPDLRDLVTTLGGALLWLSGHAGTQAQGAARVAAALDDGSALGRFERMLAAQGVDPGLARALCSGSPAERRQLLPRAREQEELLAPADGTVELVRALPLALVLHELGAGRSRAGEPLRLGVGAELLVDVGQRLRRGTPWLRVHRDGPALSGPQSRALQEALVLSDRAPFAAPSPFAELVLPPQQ
The experiment in a line: Test 1 (Thymidine Phosphorylase Inhibiting Effects). Format: biochemical.

Experiment [2] deals with human colon cancer strain Co-3. The experiment in a line: Test 3 (Metastasis Inhibiting Effects on Liver Metastasis Model). The class given is in vivo, SPF KSN-nu/nu male mouse; human colon cancer. As to conditions: oral; for Number of metastasized mice: 6 courses (5 days on, 2 days off), control 4/6; for Metastasis inhibition rate (%): liver metastasis, 6 courses, vs control. How it is done:
About 100 mm^3 of human colon cancer strain Co-3 were transplanted to the cecum of each SPF KSN-nu/nu male mouse (seven weeks old). Two weeks after the transplant, a primary carcinoma lesion was removed by surgically cutting off the cecum. […] The administration was conducted for 6 courses, each consisting of administration of 5 straight days followed by a suspension of administration for 2 days. To mice in a control, only 0.5% (w/v) hydroxypropyl methylcellulose solution was orally administered. On the day following the completion of the administration, each mouse was sacrificed and metastasis to the liver was determined based on autopsy.

In experiment [3] the test system is TMK-1 (human gastric cancer) cells. The experiment in a line: Test 2 (Effects of Life Prolongation on Liver Metastasis Model). The class given is in vivo, BALB/c-nu/nu male mice; human gastric cancer cells. As to conditions: oral, everyday for 42 days; for Average # of survival time: control 63.4 days; for ILS (%) (increase of life span): vs control, 120 days observation. Here is the method: Effects of life prolongation were assessed using a liver metastasis model system consisting of BALB/c-nu/nu male mice (seven weeks old) each of which had been transplanted in the spleen thereof with 1×10^6 cells/mouse of TMK-1 (human gastric cancer) cells.
Specific experimental procedures were carried out by modifying the method proposed by Morikawa et al. in Cancer Research, 48, 1943-1948 (1988). Described specifically, cells which had been cultured in vitro were collected with 0.25%(w/v) trypsin-0.2%(w/v) EDTA and were then washed with a physiological phosphate buffer. The cells were next counted, followed by dilution to 1×10^6 cells/50 μl. Under anesthetization with 30 mg/kg of "Nembutal", each of the mice was incised at its left abdominal region and the spleen was then pulled out. The cell suspension of 10^6 cells/50 μl which had been prepared above was injected in an amount of 50 μl into the spleen by a syringe fitted with a 28-gauge injection needle. After the mouse was left over for 2 minutes, the blood vessel to the spleen was tied at two positions by ligating clips, respectively, and the spleen was cut off. The excised abdominal region was closed with a suturing stapler. Compound No. 29 of the present invention, in a form dissolved in distilled water, was orally administered everyday for 42 days from the day following the transplant. Using the increase of life span (ILS%) of a control as a reference, an assessment was conducted by observing the mouse for 120 days after the transplant of the cells to confirm its survival. The increase of life span (ILS%) was calculated in accordance with the following formula. [formula]

[4] abbreviates: inhibition of [6-^3H]thymine formation from [6-^3H]thymidine, 37° C., 5 minutes, pH 7.4, read-out: IC50.

For the compound `CC(=N)NCc1[nH]c(=O)[nH]c(=O)c1Cl` [Compound 73, N-(5-chlorouracil-6-ylmethyl)-acetamidine hydrochloride], the IC50 – broadly, the concentration at which inhibition is half-maximal – in experiment [1] (setting [4]) stood at 1.5 µM.

With `O=c1[nH]c(CN2CCCC2)c(Br)c(=O)[nH]1` [Compound 2, 5-bromo-6-(1-pyrrolidinylmethyl)uracil], in experiment [1] (setting [4]), the IC50 was 0.51 µM.

For the compound `O=c1[nH]c(Cn2ccnc2)c(Cl)c(=O)[nH]1` [Compound 51, 5-chloro-6-(1-imidazolylmethyl)uracil hydrochloride], the half-maximal inhibitory concentration (IC50) in experiment [1] (setting [4]) was found to be 1 µM.

`O=c1[nH]c(CN2CCCC2)c(I)c(=O)[nH]1` [Compound 3]: the IC50 in experiment [1] (setting [4]) amounted to 1.3 µM.

Consider `N=C(N)NCc1[nH]c(=O)[nH]c(=O)c1Cl` [Compound 68, 5-chloro-6-(1-guanidino)methyluracil hydrochloride], for which the 50% inhibitory concentration (IC50) in experiment [1] (setting [4]) stood at 0.27 µM.

For the compound `N#Cc1c(CSC(=N)N)[nH]c(=O)[nH]c1=O` [Compound 56, 2-(5-cyanouracil-6-ylmethyl)isothiourea hydrochloride], the IC50 in experiment [1] (setting [4]) came to 0.1 µM.

With `N=C1CCCN1Cc1[nH]c(=O)[nH]c(=O)c1Cl` [Compound 29, 5-chloro-6-(1-(2-iminopyrrolidinyl)-methyl)uracil hydrochloride], the “Number of metastasized mice” value in experiment [2] (18.4 mg/kg/day) is recorded as 2/6; in experiment [2] (36.9 mg/kg/day), 1/6. Also, the “Metastasis inhibition rate (%)” value is given as 50% in experiment [2] (18.4 mg/kg/day) and 75% in experiment [2] (36.9 mg/kg/day). In addition, the “Average # of survival time” value in experiment [3] (50 mg/kg/day, N = 8) was found to be 88.5 days; in experiment [3] (100 mg/kg/day, N = 9) it was 90.8 days. For the same compound, the “ILS (%) (increase of life span)” value in experiment [3] (50 mg/kg/day) worked out at 39.6%; in experiment [3] (100 mg/kg/day) it was 43.2%.

As to `CNC(=N)SCc1[nH]c(=O)[nH]c(=O)c1Cl` [Compound 57], the IC50 in experiment [1] (setting [4]) was 0.15 µM.

Take `O=c1[nH]c(CN2CCCC2)c(Cl)c(=O)[nH]1` [Compound 1, 5-chloro-6-(1-pyrrolidinylmethyl)uracil]: in experiment [1] (setting [4]), the IC50 was 2.2 µM.

As for `N=C1NCCN1Cc1[nH]c(=O)[nH]c(=O)c1Br` [Compound 48, 5-bromo-6-(1-(2-iminoimidazolidinyl)methyl) uracil], in experiment [1], the concentration for half-maximal inhibition (IC50) was 0.03 µM.

Take `O=c1[nH]c(CN2CCC2)c(Cl)c(=O)[nH]1` [Compound 6, 5-chloro-6-(1-azetidinylmethyl)uracil]: the half-inhibitory concentration (IC50) in experiment [1] (setting [4]) is 2.6 µM.

Consider `Cc1c(CN2CCCC2=N)[nH]c(=O)[nH]c1=O` [Compound 32], for which the IC50 in experiment [1] was 0.12 µM.

For the compound `Cn1ccn(Cc2[nH]c(=O)[nH]c(=O)c2Cl)c1=N` [Compound 20], in experiment [1], half-maximal inhibition (IC50) was put at 0.24 µM.

Consider `Cc1cn(COCCO)c(=O)[nH]c1=O` [Acyclothymidine, reference compound], for which, in experiment [1] (setting [4]), the half-maximal inhibitory concentration (IC50) was more than 1000 µM.

Regarding `N#Cc1c(CN2CCCC2=N)[nH]c(=O)[nH]c1=O` [Compound 33, 5-cyano-6-(1-(2-iminopyrrolidinyl)methyl)uracil], inhibition in experiment [1] was half-maximal at 0.017 µM (IC50).

Turning to `N#Cc1ccc(O)[nH]c1=O` [3-Cyano-2,6-dihydroxypyridine, reference compound], the concentration for half-maximal inhibition (IC50) in experiment [1] (setting [4]) was determined as 130 µM.

With `O=c1[nH]c(CN2C=NCC2)c(Cl)c(=O)[nH]1` [Compound 50, 5-chloro-6-(2-imidazolin-1-ylmethyl)-uracil hydrochloride], the half-inhibitory concentration (IC50) in experiment [1] (setting [4]) was 1.2 µM.

For the compound `CN1CCN(Cc2[nH]c(=O)[nH]c(=O)c2Cl)C1=N` [Compound 34], in experiment [1], the midpoint of inhibition, the IC50, lay at 0.046 µM.
